Assay results taken from ChEMBL document CHEMBL3045945, “INHIBITORS OF FILARIAL GAMMA-GLUTAMYL CYCLE ENZYMES AS POSSIBLE MACROFILARICIDAL AGENTS” (Med Chem Res, 2004).
Counter-ions that a name gives are not always drawn. The source made the active and inactive calls. No cut-off for these calls is given here.

molecular target: Glutathione hydrolase 1 proenzyme (Rattus norvegicus, UniProt P07314); test: Inhibition of Rattus norvegicus Wistar (rat) rat Gamma-glutamyltranspeptidase using L-gamma-glutamyl-p-nitroanilide as substrate incubated for 15 min prior to substrate addition by spectrophotometric analysis
Sequence (P07314 1-379 limits assumed): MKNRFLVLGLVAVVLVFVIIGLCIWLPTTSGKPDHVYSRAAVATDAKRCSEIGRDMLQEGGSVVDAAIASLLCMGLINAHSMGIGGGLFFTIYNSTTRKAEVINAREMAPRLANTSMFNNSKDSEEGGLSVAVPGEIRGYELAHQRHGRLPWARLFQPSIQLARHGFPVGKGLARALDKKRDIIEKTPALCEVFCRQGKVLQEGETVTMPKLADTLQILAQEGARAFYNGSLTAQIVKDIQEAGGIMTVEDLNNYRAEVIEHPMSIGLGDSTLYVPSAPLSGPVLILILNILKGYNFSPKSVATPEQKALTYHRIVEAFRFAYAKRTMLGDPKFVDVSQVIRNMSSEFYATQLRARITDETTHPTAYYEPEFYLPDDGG
Sequence (P07314 380-568 limits assumed): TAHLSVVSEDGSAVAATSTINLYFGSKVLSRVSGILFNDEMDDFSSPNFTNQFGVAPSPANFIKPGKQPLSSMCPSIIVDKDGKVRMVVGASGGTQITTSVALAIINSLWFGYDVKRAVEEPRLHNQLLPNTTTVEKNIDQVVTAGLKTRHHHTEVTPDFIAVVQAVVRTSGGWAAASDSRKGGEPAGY

For `N[C@@H](CO)C(=O)O` [SERINE], which Ki is on record?
Its Ki is 50 µM.

tested on: Setaria cervi; test: Antifilarial activity against Setaria cervi assessed as change in GSH level at 250 uM after 6 hr by RP-HPLC analysis; format: functional

`Cc1cc(=O)oc2cc(OCC(=O)NC3CCCCC3)ccc12` was tested. Which Activity did it give?
Its Activity is 46%.

How did the Activity turn out when `CCOC(=O)CC(NCCCCCCCCCCCCNC(CC(=O)OCC)[C@@H]1O[C@H]2OC(C)(C)O[C@H]2[C@@H]1OC)[C@H]1O[C@@H]2OC(C)(C)O[C@@H]2[C@H]1OC` (stereo in doubt) was run?
Its Activity is 37.43%.

With `CN(C)c1ccc2nc3ccc(N(C)C)cc3[s+]c2c1.[Cl-]` [METHYLENE BLUE ANHYDROUS] as the compound, how does the Activity read?
Its Activity is 34.68%.

How did the Activity turn out when `CCOC(=O)CC(NCCCNC(CC(=O)OCC)[C@@H]1O[C@H]2OC(C)(C)O[C@H]2[C@@H]1OC)[C@H]1O[C@@H]2OC(C)(C)O[C@@H]2[C@H]1OC` (some centres not stated) was run?
The Activity was 14.55%.

How did the Activity turn out when `CC(C)=CC(=O)C=C(C)C` [PHORONE] was run?
The Activity was 93.7%.

For `CO[C@@H]1[C@H]2OC(C)(C)O[C@H]2O[C@@H]1CNCCCCCCCCCCCCNC[C@@H]1O[C@H]2OC(C)(C)O[C@H]2[C@@H]1OC` (stereo in doubt), which Activity is on record?
The Activity was 39%.

For `CCCCCCCCCCCCCC(=O)Oc1ccc2c(C)cc(=O)oc2c1`, which Activity is on record?
Its Activity is “inactive”.

For `Cc1cc(C)c2c(C)cc(=O)oc2c1`, which Activity is on record?
Its Activity is 65%.

For `COC(=O)/C=C\C(=O)OC` [DIMETHYL MALEATE], which Activity is on record?
Its Activity is 95.82%.

With `CC1(C)O[C@@H]2O[C@@H](CNCCCCCCCCCCNC[C@H]3O[C@@H]4OC(C)(C)O[C@@H]4[C@H]3OCc3ccccc3)[C@@H](OCc3ccccc3)[C@@H]2O1` as the compound, how does the Activity read?
Its Activity is 52.5%.

For `CCCc1cc(=O)oc2cc(OCC(=O)OCC)ccc12`, which Activity is on record?
The Activity was 5.75%.

Which Activity does the source give for `Cc1cc2oc(=O)cc(C)c2cc1C` here?
The Activity was 42.07%.

With `CCOC(=O)CC(NCCCCCCCNC(CC(=O)OCC)[C@@H]1O[C@H]2OC(C)(C)O[C@H]2[C@@H]1OC)[C@H]1O[C@@H]2OC(C)(C)O[C@@H]2[C@H]1OC` (some centres not stated) as the compound, how does the Activity read?
Its Activity is 39.04%.

`CC1(C)O[C@@H]2O[C@@H](CNCCCCCCCCCCCCNC[C@H]3O[C@@H]4OC(C)(C)O[C@@H]4[C@H]3OCc3ccccc3)[C@@H](OCc3ccccc3)[C@@H]2O1` was tested. Which Activity did it give?
The Activity was 60%.

For `CC1(C)O[C@@H]2O[C@@H](CNCCCCCCCNC[C@H]3O[C@@H]4OC(C)(C)O[C@@H]4[C@H]3OCc3ccccc3)[C@@H](OCc3ccccc3)[C@@H]2O1`, which Activity is on record?
The Activity was 69.29%.

With `CCOC(=O)CC(NCCCCCCCNC(CC(=O)OCC)[C@H]1O[C@@H]2OC(C)(C)OC2[C@H]1OCc1ccccc1)C1OC2OC(C)(C)O[C@H]2[C@@H]1OCc1ccccc1` (single isomer, unassigned) as the compound, how does the Activity read?
Its Activity is 15.9%.

`CCOC(=O)CC(NCCCCCCCCCCCCNC(CC(=O)OCC)[C@@H]1O[C@H]2OC(C)(C)O[C@H]2[C@@H]1OCc1ccccc1)[C@H]1O[C@@H]2OC(C)(C)O[C@@H]2[C@H]1OCc1ccccc1` (some centres not stated) was tested. Which Activity did it give?
Its Activity is 67%.

`CCOC(=O)CC(NCCCNC(CC(=O)OCC)[C@@H]1O[C@H]2OC(C)(C)O[C@H]2[C@@H]1OCc1ccccc1)C1O[C@@H]2OC(C)(C)OC2[C@H]1OCc1ccccc1` (single isomer, unassigned) was tested. Which Activity did it give?
Its Activity is 59.12%.

For `O=NN(CCCl)C(=O)NCCCl` [CARMUSTINE], which Activity is on record?
Its Activity is 68.97%.

`CC1=CC(=O)c2ccccc2C1=O` [MENADIONE] was tested. Which Activity did it give?
The Activity was 96.04%.

Which Activity does the source give for `CCCCS(=N)(=O)CC[C@H](N)C(=O)O` (some centres not stated) [BUTHIONINE SULFOXIME] here?
Its Activity is 35.78%.

For `CCOC(=O)CC(NCCCCCCCCCCNC(CC(=O)OCC)[C@@H]1O[C@H]2OC(C)(C)O[C@H]2[C@@H]1OC)[C@H]1O[C@@H]2OC(C)(C)O[C@@H]2[C@H]1OC` (some centres not stated), which Activity is on record?
The Activity was 48%.

For `CO[C@H]1[C@@H](CNCCCCCCCNC[C@@H]2O[C@H]3OC(C)(C)OC3[C@@H]2OC)OC2OC(C)(C)O[C@@H]21` (single isomer, unassigned), which Activity is on record?
The Activity was 52.54%.

Which Activity does the source give for `CCOC(=O)CC(NCCCCCCCCCCNC(CC(=O)OCC)[C@@H]1O[C@H]2OC(C)(C)O[C@H]2[C@@H]1OCc1ccccc1)[C@H]1O[C@@H]2OC(C)(C)O[C@@H]2[C@H]1OCc1ccccc1` (some centres not stated) here?
The Activity was 58.17%.

Which Activity does the source give for `Cc1cc(=O)oc2cc(OCC(=O)NCCCCCCCCCCCCN)ccc12` here?
Its Activity is 3.22%.

With `CO[C@@H]1[C@H]2OC(C)(C)O[C@H]2O[C@@H]1CNCCCCCCCCCCNC[C@@H]1O[C@H]2OC(C)(C)O[C@H]2[C@@H]1OC` as the compound, how does the Activity read?
The Activity was 33.14%.
